The source of these data is patent US20240360157A1, “TYK2 INHIBITORS” (BIOGEN MA INC., priority 2021, published 2024).

Each structure is given as a SMILES string. Where a name gives a salt, the structure may show the parent alone.

Holding throughout (format): biochemical
Assay [1] concerns the target human JAK1 catalytic kinase (JH1) domain (Homo sapiens (Human), UniProt P23458). Kind of assay: ADP-Glo Kinase Assay, recombinant JAK1 catalytic kinase (JH1) domain. Conditions: recombinant JH1 domain 4 nM, 35 μM ATP, JAK3-342 peptide, mean, read-out: JAK1 biochem IC50 (nM) Mean. How it is done:
(§1) Compounds of the disclosure were assessed for their ability to inhibit TYK2, JAK1, JAK2, and JAK3 activity. The inhibitory properties of the compounds of the disclosure described herein can be evidenced by testing in any one of the following protocols.
(§2) The kinase activity of recombinantly generated catalytic kinase (also known as JH1) domain of human JAK1, JAK2, JAK3 and TYK2 were evaluated in a plate-based assay using the ADP-Glo™ Kinase Assay platform. Specifically, 4 nM of recombinant JAK1 kinase domain is used to phosphorylate 50 μM of a JAK3-342 (sequence ALVDGYFRLTT) peptide in the presence of 35 μM ATP. Catalytic activities of recombinant JAK2, JAK3 and TYK2 kinase domain (0.2, 0.3 and 2 nM, respectively) are evaluated by the phosphorylation status of the JAK3-974 (50 μM; sequence LPLDKDYYVVR) peptide with the addition of ATP (15, 4 and 10 μM, respectively). The reactions proceed for 100 minutes and the catalytic activity is quantified by first depleting the unused ATP, converting the hydrolyzed ADP into ATP to generate luminescence in a luciferase reaction; which is the basis of the ADP-Glo platform. Compounds are tested at either 10 μM or 1 μM top concentration, 11 points of 3-fold dilution. The data is normalized and the percent activity versus log concentration of compound is fitted with a 4-parameter logistic model to generate a curve and an IC50 value.
For orientation: In ADP-Glo the light output rises with the ADP produced.

Assay [2] addresses human JAK2 catalytic kinase (JH1) domain (Homo sapiens (Human), UniProt O60674). In words: ADP-Glo Kinase Assay, recombinant JAK2 catalytic kinase (JH1) domain. Particulars: recombinant JH1 domain 0.2 nM, 15 μM ATP, JAK3-974 peptide, mean, read-out: JAK2 biochem IC50 (nM) Mean. How it is done:
as §1, §2

The target in assay [3] is human JAK3 catalytic kinase (JH1) domain (Homo sapiens (Human), UniProt P52333). In words: ADP-Glo Kinase Assay, recombinant JAK3 catalytic kinase (JH1) domain. Conditions: recombinant JH1 domain 0.3 nM, 4 μM ATP, JAK3-974 peptide, mean, read-out: JAK3 biochem IC50 (nM) Mean. How it is done:
as §1, §2

In assay [4] the target is human TYK2 catalytic kinase (JH1) domain (Homo sapiens (Human), UniProt P29597). Kind of assay: ADP-Glo Kinase Assay, recombinant TYK2 catalytic kinase (JH1) domain. Particulars: recombinant JH1 domain 2 nM, 10 μM ATP, JAK3-974 peptide, mean, read-out: TYK2 biochem IC50 (nM) Mean. On the procedure: as §1, §2
Chain of human TYK2 catalytic kinase (JH1) domain (P29597 897-1176): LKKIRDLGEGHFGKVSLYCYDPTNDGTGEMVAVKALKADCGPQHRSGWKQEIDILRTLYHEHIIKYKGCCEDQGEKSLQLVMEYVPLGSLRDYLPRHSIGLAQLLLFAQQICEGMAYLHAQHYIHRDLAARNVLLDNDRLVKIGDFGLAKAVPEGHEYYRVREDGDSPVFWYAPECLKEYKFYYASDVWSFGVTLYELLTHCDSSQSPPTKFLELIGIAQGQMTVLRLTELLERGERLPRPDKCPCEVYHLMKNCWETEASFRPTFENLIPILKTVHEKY

Chain of human JAK3 catalytic kinase (JH1) domain (P52333 822-1111): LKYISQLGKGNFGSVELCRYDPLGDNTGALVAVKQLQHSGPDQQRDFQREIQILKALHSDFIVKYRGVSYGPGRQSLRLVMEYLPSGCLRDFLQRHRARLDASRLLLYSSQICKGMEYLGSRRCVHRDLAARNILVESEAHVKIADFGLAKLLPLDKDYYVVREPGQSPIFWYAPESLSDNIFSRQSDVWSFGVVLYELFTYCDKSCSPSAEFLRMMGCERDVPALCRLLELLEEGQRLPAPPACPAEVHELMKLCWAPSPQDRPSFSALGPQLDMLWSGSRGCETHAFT
Chain of human JAK2 catalytic kinase (JH1) domain (O60674 849-1124): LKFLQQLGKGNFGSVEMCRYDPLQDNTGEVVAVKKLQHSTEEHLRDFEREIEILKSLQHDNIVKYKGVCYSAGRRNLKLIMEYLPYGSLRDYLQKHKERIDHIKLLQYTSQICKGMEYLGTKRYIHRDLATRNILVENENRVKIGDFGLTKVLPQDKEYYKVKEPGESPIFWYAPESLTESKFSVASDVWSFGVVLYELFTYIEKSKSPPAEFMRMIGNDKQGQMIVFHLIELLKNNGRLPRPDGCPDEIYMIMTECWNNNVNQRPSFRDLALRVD
Chain of human JAK1 catalytic kinase (JH1) domain (P23458 875-1153): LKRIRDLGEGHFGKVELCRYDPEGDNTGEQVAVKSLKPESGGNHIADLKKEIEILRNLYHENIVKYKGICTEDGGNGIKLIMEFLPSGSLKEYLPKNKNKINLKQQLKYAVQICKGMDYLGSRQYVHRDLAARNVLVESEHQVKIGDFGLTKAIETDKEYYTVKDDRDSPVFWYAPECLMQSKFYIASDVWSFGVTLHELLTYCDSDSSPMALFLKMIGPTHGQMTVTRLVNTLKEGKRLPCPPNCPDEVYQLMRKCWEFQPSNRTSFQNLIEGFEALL

In the case of `O=C([C@@H]1C[C@H]1F)N1C2CCC1CN(c1ccnn3cc(-c4cnn(C(F)F)c4)cc13)C2` [Example 17, (3-(6-(1-(difluoromethyl)-1H-pyrazol-4-yl)pyrrolo[1,2-b]pyridazin-4-yl)-3,8-diazabicyclo[3.2.1]octan-8-yl)((1S,2R)-2-fluorocyclopropyl)methanone], the IC50 (commonly the concentration that inhibits the measured activity by half) was found to be 37 nM in assay [1], 36 nM in assay [2], 437 nM in assay [3] and 1 nM in assay [4].

`O=C([C@@H]1C[C@H]1F)N1C2CCC1CN(c1ccnn3cc(-c4cnn(C(F)(F)F)c4)cc13)C2` [Example 18, ((1S,2R)-2-fluorocyclopropyl)(3-(6-(1-(trifluoromethyl)-1H-pyrazol-4-yl)pyrrolo[1,2-b]pyridazin-4-yl)-3,8-diazabicyclo[3.2.1]octan-8-yl)methanone]: the IC50 is 38 nM in assay [1], 33 nM in assay [2], 391 nM in assay [3] and 1.5 nM in assay [4].

As to `O=C([C@@H]1CC1(F)F)N1C2CCC1CN(c1ccnn3cc(-c4cnn(C(F)(F)F)c4)cc13)C2` [Example 19, ((S)-2,2-difluorocyclopropyl)(3-(6-(1-(trifluoromethyl)-1H-pyrazol-4-yl)pyrrolo[1,2-b]pyridazin-4-yl)-3,8-diazabicyclo[3.2.1]octan-8-yl)methanone], the IC50 in assay [1] amounted to 34 nM; in assay [2], 29 nM; in assay [3], 518 nM; in assay [4], 2.1 nM.

`O=C(C1CC1)N1C2CCC1CN(c1ccnn3cc(-c4cnn(C(F)(F)F)c4)cc13)C2` [Example 20, cyclopropyl(3-(6-(1-(trifluoromethyl)-1H-pyrazol-4-yl)pyrrolo[1,2-b]pyridazin-4-yl)-3,8-diazabicyclo[3.2.1]octan-8-yl)methanone]: the IC50 was found to be 356 nM in assay [1], 532 nM in assay [2], 1860 nM in assay [3] and 30.2 nM in assay [4].

Regarding `O=C([C@@H]1CC1(F)F)N1C2CCC1CN(c1ccnn3cc(-c4cnn(C(F)F)c4)cc13)C2` [Example 21, ((S)-2,2-difluorocyclopropyl)(3-(6-(1-(difluoromethyl)-1H-pyrazol-4-yl)pyrrolo[1,2-b]pyridazin-4-yl)-3,8-diazabicyclo[3.2.1]octan-8-yl)methanone], the IC50 in assay [1] was found to be 39 nM; in assay [2], 28 nM; in assay [3], 565 nM; in assay [4] it was 1.4 nM.

For the compound `Cn1cc(-c2cc3c(N4CC5CCC(C4)N5C(=O)[C@@H]4CC4(F)F)ccnn3c2)cn1` [Example 22, ((S)-2,2-difluorocyclopropyl)(3-(6-(1-methyl-1H-pyrazol-4-yl)pyrrolo[1,2-b]pyridazin-4-yl)-3,8-diazabicyclo[3.2.1]octan-8-yl)methanone], the IC50 in assay [1] amounted to 55 nM; in assay [2] it was 32 nM; in assay [3] it was 445 nM; in assay [4] it was 1.8 nM.

On to `Cn1cc(-c2cc3c(N4CC5CCC(C4)N5C(=O)CC#N)ccnn3c2)cn1` [Example 23, 3-(3-(6-(1-methyl-1H-pyrazol-4-yl)pyrrolo[1,2-b]pyridazin-4-yl)-3,8-diazabicyclo[3.2.1]octan-8-yl)-3-oxopropanenitrile], for which the IC50 in assay [1] worked out at 137 nM; in assay [2], 117 nM; in assay [3], 346 nM; in assay [4] it was 9.8 nM.

For the compound `O=C([C@@H]1C[C@H]1F)N1C2CCC1CN(c1ccnn3cc(C4CC4)cc13)C2` [Example 24, (3-(6-cyclopropylpyrrolo[1,2-b]pyridazin-4-yl)-3,8-diazabicyclo[3.2.1]octan-8-yl)((1S,2R)-2-fluorocyclopropyl)methanone], the IC50 turned out to be 2740 nM in assay [1], 5900 nM in assay [2], 9080 nM in assay [3] and 164 nM in assay [4].

With `O=C([C@@H]1CC1(F)F)N1C2CCC1CN(c1ccnn3cc(C4CC4)cc13)C2` [Example 25, (3-(6-cyclopropylpyrrolo[1,2-b]pyridazin-4-yl)-3,8-diazabicyclo[3.2.1]octan-8-yl)((S)-2,2-difluorocyclopropyl)methanone], the IC50 in assay [1] amounted to 8060 nM; in assay [2] it was 10000 nM; in assay [3], 10000 nM; in assay [4], 662 nM.

On to `COc1nccc(-c2cc3c(N4CC5CCC(C4)N5C(=O)[C@@H]4C[C@H]4F)ccnn3c2)c1F` [Example 26, (3-(6-(3-fluoro-2-methoxypyridin-4-yl)pyrrolo[1,2-b]pyridazin-4-yl)-3,8-diazabicyclo[3.2.1]octan-8-yl)((1S,2R)-2-fluorocyclopropyl)methanone], for which the IC50 in assay [1] worked out at 292 nM; in assay [2] it was 145 nM; in assay [3] it was 1190 nM; in assay [4], 9.8 nM.

On to `COc1cc(-c2cc3c(N4CC5CCC(C4)N5C(=O)[C@@H]4C[C@H]4F)ccnn3c2)c(F)cn1` [Example 27, (3-(6-(5-fluoro-2-methoxypyridin-4-yl)pyrrolo[1,2-b]pyridazin-4-yl)-3,8-diazabicyclo[3.2.1]octan-8-yl)((1S,2R)-2-fluorocyclopropyl)methanone], for which the IC50 in assay [1] stood at 277 nM; in assay [2] it was 325 nM; in assay [3], 4000 nM; in assay [4], 16 nM.

Regarding `O=C([C@H]1C[C@H](C(F)(F)F)C1)N1C2CCC1CN(c1ncnn3cc(-c4cnn(C(F)F)c4)cc13)C2` [Example 28, (3-(6-(1-(difluoromethyl)-1H-pyrazol-4-yl)pyrrolo[2,1-f][1,2,4]triazin-4-yl)-3,8-diazabicyclo[3.2.1]octan-8-yl)((1r,3r)-3-(trifluoromethyl)cyclobutyl)methanone], the IC50 in assay [1] stood at 2140 nM; in assay [2], 10000 nM; in assay [3] it was 10000 nM; in assay [4], 636 nM.

Regarding `O=C([C@H]1C[C@@H](C(F)(F)F)C1)N1C2CCC1CN(c1ncnn3cc(-c4cnn(C(F)F)c4)cc13)C2` [Example 29, (3-(6-(1-(difluoromethyl)-1H-pyrazol-4-yl)pyrrolo[2,1-f][1,2,4]triazin-4-yl)-3,8-diazabicyclo[3.2.1]octan-8-yl)((1s,3s)-3-(trifluoromethyl)cyclobutyl)methanone], the IC50 in assay [1] is 774 nM; in assay [2], 4250 nM; in assay [3], 7470 nM; in assay [4] it was 238 nM.

Consider `N#CC1(C(=O)N2C3CCC2CN(c2ncnn4cc(-c5cnn(C(F)F)c5)cc24)C3)CC1` [Example 30, 1-(3-(6-(1-(difluoromethyl)-1H-pyrazol-4-yl)pyrrolo[2,1-f][1,2,4]triazin-4-yl)-3,8-diazabicyclo[3.2.1]octane-8-carbonyl)cyclopropane-1-carbonitrile trifluoroacetate], for which the IC50 in assay [1] is 191 nM; in assay [2] it was 938 nM; in assay [3], 820 nM; in assay [4], 90 nM.

In the case of `CC(C(=O)N1C2CCC1CN(c1ncnn3cc(-c4cnn(C(F)F)c4)cc13)C2)C(F)(F)F` (stereo not drawn) [Example 31, 1-(3-(6-(1-(difluoromethyl)-1H-pyrazol-4-yl)pyrrolo[2,1-f][1,2,4]triazin-4-yl)-3,8-diazabicyclo[3.2.1]octan-8-yl)-3,3,3-trifluoro-2-methylpropan-1-one trifluoroacetate], the IC50 in assay [1] is 1480 nM; in assay [2], 4460 nM; in assay [3], 6320 nM; in assay [4], 193 nM.
